Data published in ChEMBL document CHEMBL1649305, “Novel protease inhibitors (PIs) containing macrocyclic components and 3(R),3a(S),6a(R)-bis-tetrahydrofuranylurethane that are potent against multi-PI-resistant HIV-1 variants in vitro” (Antimicrob Agents Chemother, 2010).
Activity calls are given as the source filed them. The calls are words filed in the database; no cut-off is given here.

Assays:
[1] = system: Human immunodeficiency virus 1; assay: Antiviral activity against HIV1 expressing protease L23I/E34Q/K43I/M46I/I50L/G51A/L63P/A71V/V82A/T91A mutant infected in human MT4 cells selected at 5 uM of atazanavir by p24 Gag protein production inhibition assay; details: Human immunodeficiency virus 1, MT4
[2] = system: Human immunodeficiency virus 2; assay: Antiviral activity against HIV2 ROD infected in human MT2 cells by MTT assay; format: functional, organism-based; details: Human immunodeficiency virus 2, ISOLATE ROD
[3] = system: Human immunodeficiency virus 1; assay: Antiviral activity against HIV1 expressing protease L10F/M46I/I50V/A71V/I84V/L90M mutant infected in human MT4 cells selected at 5 uM of amprenavir by p24 Gag protein production inhibition assay; details: Human immunodeficiency virus 1, MT4
[4] = system: Human immunodeficiency virus 1; assay: Antiviral activity against wild type HIV1 NL4-3 infected in human MT4 cells by p24 Gag protein production inhibition assay; details: Human immunodeficiency virus 1, NL4-3, MT4
[5] = Cytotoxicity against human MT2 cells after 7 days by MTT assay; format: cell-based
[6] = system: Human immunodeficiency virus 2; assay: Antiviral activity against HIV2 EHO infected in human MT2 cells by MTT assay; format: functional, organism-based; details: Human immunodeficiency virus 2, EHO
[7] = system: Human immunodeficiency virus 1; assay: Antiviral activity against multidrug-resistant HIV1 isolate G containing L10I, V11I, T12E, I15V, L19I,R41K, M46L, L63P, A71T, V82A, and L90M mutant infected in human PHA-PBMC cells by p24 Gag protein production inhibition assay; details: Human immunodeficiency virus 1, isolate G
[8] = system: Human immunodeficiency virus 1; assay: Antiviral activity against multidrug-resistant HIV1 isolate C containing protease L10I, I15V, K20R, L24I, M36I, M46L, I54V, I62V, L63P, K70Q, V82A, and L89M mutant infected in human PHA-PBMC cells by p24 Gag protein production inhibition assay; details: Human immunodeficiency virus 1, isolate C
[9] = system: Human immunodeficiency virus type 1 protease (Human immunodeficiency virus 1), Q72874 [L24I,V82I,I84V]; assay: Inhibition of protease L24I/V82I/I84V[…] dimerization in HIV1 infected in COS7 cells at 0.1 uM by FRET based assay; format: cell-based; details: COS-7
[10] = system: Human immunodeficiency virus 1; assay: Antiviral activity against HIV1 expressing protease L10F/M46M,I/Q61Q mutant infected in human MT4 cells selected at 1 uM of GRL-396 by MTT assay; format: functional, organism-based; details: Human immunodeficiency virus 1, MT4
[11] = system: Human immunodeficiency virus 1; assay: Antiviral activity against multidrug-resistant HIV1 isolate B containing protease L10I, K14R, L33I, M36I,M46I, F53I, K55R, I62V, L63P, A71V, G73S, V82A, L90M, and I93L mutant infected in human PHA-PBMC cells by p24 Gag protein production inhibition assay; details: Human immunodeficiency virus 1, isolate B
[12] = system: Human immunodeficiency virus 1; assay: Antiviral activity against HIV1 LAI infected in human MT2 cells by MTT assay; format: functional, organism-based; details: Human immunodeficiency virus 1, LAI
[13] = system: Human immunodeficiency virus 1; assay: Antiviral activity against multidrug-resistant HIV1 isolate JSL containing L10I, L24I, I33F, E35D, M36I, N37S, M46L, I54V, R57K, I62V, L63P, A71V, G73S, and V82A mutant infected in human PHA-PBMC cells by p24 Gag protein production inhibition assay; details: Human immunodeficiency virus 1, isolate JSL
[14] = system: Human immunodeficiency virus 1; assay: Antiviral activity against HIV1 expressing protease L10I/G48V/I54V/A71V/I84V/L90M mutant infected in human MT4 cells selected at 5 uM of saquinavir by p24 Gag protein production inhibition assay; details: Human immunodeficiency virus 1, MT4
[15] = system: Human immunodeficiency virus 1; assay: Antiviral activity against HIV1 expressing protease L10F/M46L/I50V/A71Vmutant infected in human MT4 cells selected at 1 uM of GRL-286 by MTT assay; format: functional, organism-based; details: Human immunodeficiency virus 1, MT4
[16] = system: Human immunodeficiency virus 1; assay: Antiviral activity against HIV1 expressing protease L10I/L24I/M46I/V82I/I84V mutant infected in human MT4 cells selected after 50 passages of GRL-216 by MTT assay; format: functional, organism-based; details: Human immunodeficiency virus 1, MT4
[17] = system: Human immunodeficiency virus 1; assay: Antiviral activity against HIV1 expressing protease L10F/D30N/K45I/A71V/T74S mutant infected in human MT4 cells selected at 5 uM of nelfinavir by MTT assay; format: functional, organism-based; details: Human immunodeficiency virus 1, MT4
[18] = system: Human immunodeficiency virus 1; assay: Antiviral activity against HIV1 expressing protease L10F/M46I/T91S mutant infected in human MT4 cells selected at 1 uM of GRL-246 by MTT assay; format: functional, organism-based; details: Human immunodeficiency virus 1, MT4
[19] = system: Human immunodeficiency virus 1; assay: Antiviral activity against multidrug-resistant HIV1 isolate TM containing L10I, K14R, R41K, M46L, I54V, L63P, A71V, V82A, L90M, and I93L mutant infected in human PHA-PBMC cells by p24 Gag protein production inhibition assay; details: Human immunodeficiency virus 1, isolate TM
[20] = system: Human immunodeficiency virus 1; assay: Antiviral activity against wild type HIV1 ERS104 containing protease L63P mutant infected in human PHA-PBMC cells by p24 Gag protein production inhibition assay; details: Human immunodeficiency virus 1, ERS104, PBMC
[21] = system: Human immunodeficiency virus 1; assay: Antiviral activity against HIV1 NL4-3 infected in human MT4 cells at 0.26 uM after 50 passages by MTT assay; format: functional, organism-based
[22] = system: Human immunodeficiency virus 1; assay: Antiviral activity against multidrug-resistant HIV1 isolate MM containing L10I, K43T, M46L, I54V, L63P, A71V, V82A, L90M, and Q92K mutant infected in human PHA-PBMC cells by p24 Gag protein production inhibition assay; details: Human immunodeficiency virus 1, isolate MM
[23] = molecular target: Protease (Human immunodeficiency virus 1) (UniProt Q9YQ12); assay: Inhibition of protease dimerization in HIV1 infected in COS7 cells at 0.1 uM by FRET based assay; format: cell-based; details: COS-7
[24] = system: Human immunodeficiency virus 1; assay: Antiviral activity against HIV1 expressing protease L10F/M46I/I54V/V82A mutant infected in human MT4 cells selected at 5 uM of Lopinavir by p24 Gag protein production inhibition assay; details: Human immunodeficiency virus 1, MT4
[25] = system: Human immunodeficiency virus 1; assay: Antiviral activity against HIV1 NL4-3 infected in human MT4 cells after 50 passages by MTT assay; format: functional, organism-based
[26] = system: Human immunodeficiency virus 1; assay: Ratio of EC50 for multidrug-resistant HIV1 isolate G containing L10I, V11I, T12E, I15V, L19I,R41K, M46L, L63P, A71T, V82A, and L90M mutant to EC50 for wild type HIV1 ERS104 containing protease […] infected in human PHA-PBMC cells; format: functional
[27] = system: Human immunodeficiency virus 1; assay: Antiviral activity against HIV1 NL4-3 infected in human MT4 cells at 1 uM after 20 passages by MTT assay; format: functional, organism-based
[28] = system: Human immunodeficiency virus 1; assay: Antiviral activity against HIV1 NL4-3 infected in human MT4 cells at 1 uM after 37 passages by MTT assay; format: functional, organism-based
[29] = system: Human immunodeficiency virus 1; assay: Antiviral activity against HIV1 NL4-3 infected in human MT4 cells at 1 uM after 33 passages by MTT assay; format: functional, organism-based
[30] = system: Human immunodeficiency virus 1; assay: Ratio of EC50 for multidrug-resistant HIV1 isolate C containing protease L10I, I15V, K20R, L24I, M36I, M46L, I54V, I62V, L63P, K70Q, V82A, and L89M mutant to EC50 for wild type HIV1 ERS104 containing protease L63P mutant infected in human PHA-PBMC cells
[31] = Selectivity ratio of CC50 for human MT2 cells to EC50 for HIV1 LAI infected human MT2 cells; format: ADME, cell-based; details: MT2 cells (CC50) and HIV1 LAI infected MT2 cells (EC50)
[32] = system: Human immunodeficiency virus 1; assay: Ratio of EC50 for multidrug-resistant HIV1 isolate JSL to EC50 for wild type HIV1 ERS104 containing protease […] infected in human PHA-PBMC cells

Structure (SMILES)	EC50 [1]	EC50 [2]	EC50 [3]	EC50 [4]	CC50 at 168 h [5]	EC50 [6]	EC50 [7]	EC50 [8]	EC50 [10]	EC50 [11]	EC50 [12]	EC50 [13]	EC50 [14]	EC50 [15]	EC50 [16]	EC50 [17]	EC50 [18]	EC50 [19]	EC50 [20]	EC50 [22]	further results
COc1ccc2c(c1)OCC/C=C\CCCCN(C[C@@H](O)[C@H](Cc1ccccc1)NC(=O)O[C@H]1CO[C@H]3OCC[C@H]31)S2(=O)=O	23 nM	17 nM	> 1000 nM	5 nM	48800 nM	10 nM	57 nM	44 nM	73 nM	37 nM	2 nM	73 nM	20 nM	> 1000 nM	94 nM	40 nM	300 nM	27 nM	5 nM	33 nM	inhibition [9]: Active; Activity [21]: Active; inhibition [23]: Active; EC50 [24]: 35 nM
COc1ccc2c(c1)OCCC/C=C\CCCCN(C[C@@H](O)[C@H](Cc1ccccc1)NC(=O)O[C@H]1CO[C@H]3OCC[C@H]31)S2(=O)=O	30 nM	25 nM	> 1000 nM	9 nM	33100 nM	18 nM	28 nM	29 nM	250 nM	89 nM	4 nM	210 nM	46 nM	> 1000 nM	190 nM	41 nM	330 nM	72 nM	7 nM	55 nM	Activity [25]: inactive; Ratio EC50 [26]: 4; Activity [27]: inactive; Activity [28]: inactive; Activity [29]: inactive; Ratio EC50 [30]: 4; selectivity ratio [31]: 8280; inhibition [23]: Active; Ratio EC50 [32]: 15; EC50 [24]: 350 nM
